What all share (format): functional
One assay has as its system NCI-H522. Description: Cytotoxicity against human NCI-H522 cells assessed as cell growth at 10^-5 M after 48 hrs by SRB assay. To be noted: NCI-H522, 48 h, read-out: Activity.
Another assay concerns MDA-MB-468. In words: Cytotoxicity against human MDA-MB-468 cells assessed as cell growth at 10^-5 M after 48 hrs by SRB assay. Particulars: MDA-MB-468, 48 h, read-out: Activity. On the technique in general: In SRB staining, fixed cells bind dye roughly in proportion to their protein.
The subject of the next assay is SF-539. In words: Cytotoxicity against human SF539 cells assessed as cell growth at 10^-5 M after 48 hrs by SRB assay. To be noted: SF-539, 48 h, read-out: Activity.
A further assay relates to SNB-75. In words: Cytotoxicity against human SNB75 cells assessed as cell growth at 10^-5 M after 48 hrs by SRB assay. Particulars: SNB-75, 48 h, read-out: Activity.
In another assay the test system is IGROV-1. Description: Cytotoxicity against human IGROV1 cells assessed as cell growth at 10^-5 M after 48 hrs by SRB assay. To be noted: IGROV-1, 48 h, read-out: Activity.
The next assay relates to HOP-92. Description: Cytotoxicity against human HOP92 cells assessed as cell growth at 10^-5 M after 48 hrs by SRB assay. To be noted: HOP-92, 48 h, read-out: Activity.
The next assay has as its system CAKI-1. In words: Cytotoxicity against human Caki1 cells assessed as cell growth at 10^-5 M after 48 hrs by SRB assay. To be noted: CAKI-1, 48 h, read-out: Activity.
Another assay has as its system A549. In words: Cytotoxicity against human A549/ATCC cells assessed as cell growth at 10^-5 M after 48 hrs by SRB assay. Particulars: A549, 48 h, read-out: Activity.

For the compound `COc1cccc(NC(=O)c2nnn(-c3ccc4noc(-c5ccc(Cl)cc5)c4c3)c2C)c1`, the growth at 10 µM was 62% in the assay with NCI-H522; 56.6% in the assay with MDA-MB-468; 54.1% in the assay on SF-539; 46.6% with SNB-75; 49.9% in the assay with IGROV-1; 61.5% with HOP-92.
In the case of `Cc1c(C(=O)Nc2ncc(Cc3ccccc3)s2)nnn1-c1ccccc1`, the results for the growth at 10 µM with CAKI-1 and with A549 were 80% and 80.3%, respectively.

The record behind these values is ChEMBL document CHEMBL2424636, “Synthesis and anticancer activity evaluation of new 1,2,3-triazole-4-carboxamide derivatives” (2013).
